Assay results taken from ChEMBL document CHEMBL3259804, “Syk inhibitors with high potency in presence of blood” (Bioorg Med Chem Lett, 2014).

Legend:
Bone marrow cell = assay: Inhibition of IL3 dependent proliferation in […] mouse bone marrow cells using [3H]thymidine by liquid scintillation counting; assay type: functional, cell-based
[1] = target: T1, Tyrosine-protein kinase SYK (Homo sapiens, UniProt P43405); assay: Inhibition of Syk (unknown origin) using 4 uM peptide assessed as product formation after 60 mins incubation by microfluidic mobility shift assay
[2] = target: T2, Tyrosine-protein kinase ZAP-70 (Homo sapiens, UniProt P43403); assay: Inhibition of ZAP70 (unknown origin)
T2 sequence (P43403 whole entry): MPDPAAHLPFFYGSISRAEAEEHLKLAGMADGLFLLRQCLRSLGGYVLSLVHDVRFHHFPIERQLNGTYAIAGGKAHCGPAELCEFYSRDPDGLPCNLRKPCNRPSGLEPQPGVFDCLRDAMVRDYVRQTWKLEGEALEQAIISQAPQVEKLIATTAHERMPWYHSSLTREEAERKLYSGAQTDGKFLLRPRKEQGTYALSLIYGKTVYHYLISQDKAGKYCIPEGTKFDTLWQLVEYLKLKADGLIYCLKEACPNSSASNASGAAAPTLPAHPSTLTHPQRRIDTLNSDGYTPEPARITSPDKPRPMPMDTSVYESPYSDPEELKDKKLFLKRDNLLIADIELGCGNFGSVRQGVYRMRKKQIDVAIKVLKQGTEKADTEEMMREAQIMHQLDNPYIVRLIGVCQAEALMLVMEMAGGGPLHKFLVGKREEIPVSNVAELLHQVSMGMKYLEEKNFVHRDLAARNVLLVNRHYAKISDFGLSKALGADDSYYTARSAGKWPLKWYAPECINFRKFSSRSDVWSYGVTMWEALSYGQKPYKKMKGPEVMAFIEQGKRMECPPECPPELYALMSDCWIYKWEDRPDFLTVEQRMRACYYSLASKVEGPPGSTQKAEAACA

[3] = target: T1, Tyrosine-protein kinase SYK; assay: Inhibition of Syk in anti IgM-stimulated human Ramos cells assessed as BLNK phosphorylation by cellular assay
[4] = Volume of distribution at steady state in Sprague-Dawley rat at 1 mg/kg, iv and 3 mg/kg, po; assay type: ADME, organism-based; conditions: in vivo, read-out: Vdss
[5] = Drug metabolism in pig liver microsomes assessed as conversion into 5-(1H-indol-7-ylamino)-7-((1R,2S)-2-aminocyclohexylamino)pyrido[4,3-d]pyrimidine-2,4(1H,3H)-dione by NMR; assay type: ADME, Sus scrofa
Rattus norvegicus [6] = assay: Cmax/dose in Sprague-Dawley rat at 1 mg/kg, iv and 3 mg/kg, po; assay type: ADME, organism-based; conditions: in vivo
[7] = Apparent permeability from basolateral to apical side in human Caco2 cells; assay type: ADME, cell-based; conditions: Caco-2
[8] = Apparent permeability from apical to basolateral side in human Caco2 cells; assay type: ADME, cell-based; conditions: Caco-2
[9] = Plasma bioavailability in Sprague-Dawley rat at 1 mg/kg, iv and 3 mg/kg, po; assay type: ADME, organism-based
[10] = Half life in dog liver S9 fraction; assay type: ADME, subcellular, Canis lupus familiaris
Rattus norvegicus [11] = assay: Dose normalized AUC in Sprague-Dawley rat at 3 mg/kg, po; assay type: ADME, organism-based; design: dose 3 mg/kg, route oral; conditions: in vivo
Liver = assay: Half life in rat liver S9 fraction assessed as conversion into 5-(1H-indol-7-ylamino)-7-((1R,2S)-2-aminocyclohexylamino)pyrido[4,3-d]pyrimidine-2,4(1H,3H)-dione; assay type: ADME, subcellular
[12] = Terminal half life Sprague-Dawley rat at 1 mg/kg, iv and 3 mg/kg, po; assay type: ADME, organism-based; conditions: in vivo, read-out: beta t1/2 (converted)
[13] = Clearance in Sprague-Dawley rat at 1 mg/kg, iv and 3 mg/kg, po; assay type: ADME, organism-based; conditions: in vivo
Rattus norvegicus [14] = assay: Dose normalized AUC in Sprague-Dawley rat at 1 mg/kg, iv; assay type: ADME, organism-based; design: dose 1 mg/kg, route intravenous; conditions: in vivo
Liver microsome = assay: (§1) Half life in rat liver microsomes; assay type: ADME; conditions: microsomes
[15] = Half life in rat liver S9 fraction assessed as conversion into 5-(1H-indol-7-ylamino)-7-((1R,2S)-2-aminocyclohexylamino)pyrido[4,3-d]pyrimidine-2,4(1H,3H)-dione in presence of NADPH; assay type: ADME, subcellular
[16] = target: Voltage-gated inwardly rectifying potassium channel KCNH2 (Homo sapiens, UniProt Q12809); assay: Inhibition of human ERG by Q-patch assay
[17] = target: Tyrosine-protein kinase JAK2 (Homo sapiens, UniProt O60674); assay: Inhibition of JAK2 (unknown origin)
[18] = target: Tyrosine-protein kinase Lyn (Homo sapiens, UniProt P07948); assay: Inhibition of Lyn (unknown origin)
[19] = target: T1, Tyrosine-protein kinase SYK; assay: Inhibition of Syk in human whole blood assessed as inhibition of P-SLP76 in CD14+ monocytes by flow cytometry
[20] = as §1; assay type: ADME; conditions: liver microsomes
[21] = Terminal half life Wistar rat at 3 mg/kg, iv and 10 mg/kg, po; assay type: ADME, organism-based; conditions: in vivo, read-out: beta t1/2 (converted)
Rattus norvegicus [22] = assay: Dose normalized AUC in Wistar rat at 10 mg/kg, po; assay type: ADME, organism-based; design: dose 10 mg/kg, route oral; conditions: in vivo
[23] = Clearance in Wistar rat at 3 mg/kg, iv and 10 mg/kg, po; assay type: ADME, organism-based; conditions: in vivo
[24] = Plasma bioavailability in Wistar rat at 3 mg/kg, iv and 10 mg/kg, po; assay type: ADME, organism-based
Rattus norvegicus [25] = assay: Cmax/dose in Wistar rat at 3 mg/kg, iv and 10 mg/kg, po; assay type: ADME, organism-based; conditions: in vivo
[26] = target: T3, Receptor-type tyrosine-protein kinase FLT3 (Homo sapiens, UniProt P36888); assay: Inhibition of Flt3 (unknown origin)
T3 sequence (P36888 whole entry): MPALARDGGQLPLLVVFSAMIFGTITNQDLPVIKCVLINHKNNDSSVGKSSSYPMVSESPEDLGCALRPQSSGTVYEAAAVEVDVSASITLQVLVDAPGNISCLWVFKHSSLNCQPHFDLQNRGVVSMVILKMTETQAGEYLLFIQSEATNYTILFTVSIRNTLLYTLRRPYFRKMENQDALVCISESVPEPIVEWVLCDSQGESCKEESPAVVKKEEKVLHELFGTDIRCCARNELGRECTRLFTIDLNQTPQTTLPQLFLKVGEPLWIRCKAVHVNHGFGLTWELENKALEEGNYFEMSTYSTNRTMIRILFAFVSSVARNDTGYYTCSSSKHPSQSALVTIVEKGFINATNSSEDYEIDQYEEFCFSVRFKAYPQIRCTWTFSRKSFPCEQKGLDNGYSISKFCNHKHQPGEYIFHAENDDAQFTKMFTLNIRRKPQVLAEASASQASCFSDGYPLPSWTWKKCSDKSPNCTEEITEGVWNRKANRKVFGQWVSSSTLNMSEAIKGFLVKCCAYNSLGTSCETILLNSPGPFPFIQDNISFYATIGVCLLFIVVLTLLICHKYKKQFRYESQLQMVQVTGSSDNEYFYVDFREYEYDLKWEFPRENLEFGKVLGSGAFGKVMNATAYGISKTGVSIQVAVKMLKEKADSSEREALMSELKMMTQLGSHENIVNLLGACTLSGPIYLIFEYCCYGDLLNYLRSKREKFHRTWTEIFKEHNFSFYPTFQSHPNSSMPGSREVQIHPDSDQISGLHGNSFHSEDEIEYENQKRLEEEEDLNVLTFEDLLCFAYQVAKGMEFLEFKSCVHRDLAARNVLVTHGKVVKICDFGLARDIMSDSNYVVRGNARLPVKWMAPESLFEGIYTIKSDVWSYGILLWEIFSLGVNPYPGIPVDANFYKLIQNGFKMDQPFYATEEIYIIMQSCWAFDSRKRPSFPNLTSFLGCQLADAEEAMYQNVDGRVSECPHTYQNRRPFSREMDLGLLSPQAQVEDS

[27] = Volume of distribution at steady state in Wistar rat at 3 mg/kg, iv and 10 mg/kg, po; assay type: ADME, organism-based; conditions: in vivo, read-out: Vdss
Rattus norvegicus [28] = assay: Dose normalized AUC in Wistar rat at 3 mg/kg, iv; assay type: ADME, organism-based; design: dose 3 mg/kg, route intravenous; conditions: in vivo

Sequence of Tyrosine-protein kinase JAK2 (O60674 whole entry): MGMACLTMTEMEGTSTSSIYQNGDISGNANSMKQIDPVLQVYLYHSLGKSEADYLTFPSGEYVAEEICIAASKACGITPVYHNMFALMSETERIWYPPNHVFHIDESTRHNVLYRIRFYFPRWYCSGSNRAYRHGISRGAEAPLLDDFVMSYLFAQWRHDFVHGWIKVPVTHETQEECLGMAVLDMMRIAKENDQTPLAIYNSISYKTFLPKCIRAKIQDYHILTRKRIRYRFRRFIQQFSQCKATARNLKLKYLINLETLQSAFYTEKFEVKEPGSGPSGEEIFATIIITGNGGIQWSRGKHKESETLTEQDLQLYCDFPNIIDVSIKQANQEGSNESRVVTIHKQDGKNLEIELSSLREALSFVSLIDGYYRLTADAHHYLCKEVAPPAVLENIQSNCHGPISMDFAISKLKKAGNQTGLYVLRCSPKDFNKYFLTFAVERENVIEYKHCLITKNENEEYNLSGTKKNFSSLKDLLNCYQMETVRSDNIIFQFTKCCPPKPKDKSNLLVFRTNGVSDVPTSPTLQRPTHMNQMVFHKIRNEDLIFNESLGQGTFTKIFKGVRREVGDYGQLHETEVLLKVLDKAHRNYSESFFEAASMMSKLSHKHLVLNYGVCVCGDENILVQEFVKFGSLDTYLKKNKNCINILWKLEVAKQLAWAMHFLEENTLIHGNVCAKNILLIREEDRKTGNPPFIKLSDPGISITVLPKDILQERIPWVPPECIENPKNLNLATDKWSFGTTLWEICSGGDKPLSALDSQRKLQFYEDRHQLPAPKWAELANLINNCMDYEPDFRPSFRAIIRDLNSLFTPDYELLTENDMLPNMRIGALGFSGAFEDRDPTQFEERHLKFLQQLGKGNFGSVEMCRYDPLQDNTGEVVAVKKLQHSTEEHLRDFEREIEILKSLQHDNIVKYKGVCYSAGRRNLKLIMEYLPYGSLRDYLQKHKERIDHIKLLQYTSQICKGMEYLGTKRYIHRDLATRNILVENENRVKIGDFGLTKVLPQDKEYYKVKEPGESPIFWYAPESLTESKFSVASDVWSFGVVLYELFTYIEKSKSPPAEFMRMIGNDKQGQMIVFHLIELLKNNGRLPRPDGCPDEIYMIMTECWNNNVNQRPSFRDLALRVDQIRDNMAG
Sequence of Voltage-gated inwardly rectifying potassium channel KCNH2 (Q12809 whole entry): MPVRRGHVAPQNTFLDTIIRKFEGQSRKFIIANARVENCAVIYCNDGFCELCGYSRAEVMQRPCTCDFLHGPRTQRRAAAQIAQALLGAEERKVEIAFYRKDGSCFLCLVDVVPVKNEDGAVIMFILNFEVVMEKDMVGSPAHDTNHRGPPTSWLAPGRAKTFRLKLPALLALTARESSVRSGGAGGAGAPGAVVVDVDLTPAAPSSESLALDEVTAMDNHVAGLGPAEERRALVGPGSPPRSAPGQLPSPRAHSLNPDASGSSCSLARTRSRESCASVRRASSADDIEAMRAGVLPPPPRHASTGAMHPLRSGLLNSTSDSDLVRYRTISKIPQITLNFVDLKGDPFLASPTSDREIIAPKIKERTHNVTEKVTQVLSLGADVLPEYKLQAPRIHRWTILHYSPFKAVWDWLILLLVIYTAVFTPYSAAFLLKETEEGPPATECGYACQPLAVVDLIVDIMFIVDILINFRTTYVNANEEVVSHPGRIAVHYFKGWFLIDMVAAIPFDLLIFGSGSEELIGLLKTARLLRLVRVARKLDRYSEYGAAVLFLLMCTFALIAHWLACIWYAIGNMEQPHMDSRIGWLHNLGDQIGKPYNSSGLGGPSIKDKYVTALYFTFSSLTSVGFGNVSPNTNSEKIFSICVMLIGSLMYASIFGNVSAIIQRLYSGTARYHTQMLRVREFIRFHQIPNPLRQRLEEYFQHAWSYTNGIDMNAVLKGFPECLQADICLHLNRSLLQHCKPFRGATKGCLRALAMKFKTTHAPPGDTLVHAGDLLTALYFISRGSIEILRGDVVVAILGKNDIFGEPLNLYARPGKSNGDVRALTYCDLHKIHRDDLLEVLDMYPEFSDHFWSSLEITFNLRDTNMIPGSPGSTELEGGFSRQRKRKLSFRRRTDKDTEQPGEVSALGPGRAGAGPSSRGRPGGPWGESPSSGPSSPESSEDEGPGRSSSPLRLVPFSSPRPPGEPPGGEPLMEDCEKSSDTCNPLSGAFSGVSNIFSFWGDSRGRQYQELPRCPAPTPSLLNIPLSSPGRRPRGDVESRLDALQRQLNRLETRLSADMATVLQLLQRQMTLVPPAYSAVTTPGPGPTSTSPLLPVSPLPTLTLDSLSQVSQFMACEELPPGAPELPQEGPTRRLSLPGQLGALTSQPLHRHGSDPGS
Sequence of Tyrosine-protein kinase Lyn (P07948 whole entry): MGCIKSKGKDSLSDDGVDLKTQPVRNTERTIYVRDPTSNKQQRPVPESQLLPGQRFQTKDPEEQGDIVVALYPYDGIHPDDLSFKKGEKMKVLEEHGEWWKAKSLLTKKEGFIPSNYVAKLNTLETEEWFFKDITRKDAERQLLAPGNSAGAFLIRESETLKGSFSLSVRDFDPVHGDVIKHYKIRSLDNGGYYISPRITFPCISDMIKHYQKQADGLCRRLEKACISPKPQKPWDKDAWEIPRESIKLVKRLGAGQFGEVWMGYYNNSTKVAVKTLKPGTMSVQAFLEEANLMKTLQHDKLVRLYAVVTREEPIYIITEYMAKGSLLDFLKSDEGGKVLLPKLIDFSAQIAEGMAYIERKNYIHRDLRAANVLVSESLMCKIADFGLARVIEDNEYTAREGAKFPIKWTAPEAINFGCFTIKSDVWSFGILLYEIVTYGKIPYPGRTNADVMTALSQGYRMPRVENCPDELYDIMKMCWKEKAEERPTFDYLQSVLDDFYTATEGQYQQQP

SMILES | IC50 (Bone marrow cell) [µM] | IC50 [1] [µM] | IC50 [2] [µM] | IC50 [3] [µM] | IC50 [17] [µM] | IC50 [18] [µM] | IC50 [19] [µM] | half-life [20] [min] | other results
NC(=O)c1cnc(N[C@@H]2CCCC[C@@H]2N)nc1Nc1cccc(-n2nccn2)c1 | 5.85 | – | – | – | – | – | – | – | –
N[C@H]1CCCC[C@H]1Nc1cc2nc[nH]c(=O)c2c(Nc2cccc(-n3nccn3)c2)n1 | 0.249 | 0.005 | 0.074 | 0.778 | – | – | – | – | –
N[C@H]1CCCC[C@H]1Nc1cc2nc[nH]c(=O)c2c(Nc2cccc3cc[nH]c23)n1 | – | – | – | – | – | – | – | – | Vd [4]: 31 L/kg; Drug metabolism [5]: metabolite_detected; Cmax/dose (Rattus norvegicus [6]): 1 nM; Papp B→A [7]: 152 nm/s; Papp A→B [8]: 95 nm/s; bioavailability [9]: 1%; half-life [10]: > 120 min; AUC/dose (Rattus norvegicus [11]): 9 nM·h; t1/2 (Liver): < 5 min; half-life [12]: 660 min; clearance [13]: 4.14 L/h/kg; AUC/dose (Rattus norvegicus [14]): 629 nM·h; t1/2 (Liver microsome): 22 min; t1/2 [15]: < 5 min
Cc1c[nH]c2c(Nc3nc(N[C@@H]4CCCC[C@@H]4N)cc4nc[nH]c(=O)c34)cccc12 | 3.8 | 0.002 | 0.033 | 0.047 | 0.19 | 0.044 | 0.805 | 25 | Vd [4]: 19 L/kg; Cmax/dose (Rattus norvegicus [6]): 4 nM; IC50 [16]: > 30 µM; Papp B→A [7]: 96 nm/s; Papp A→B [8]: 95 nm/s; bioavailability [9]: 4%; AUC/dose (Rattus norvegicus [11]): 40 nM·h; half-life [12]: 780 min; clearance [13]: 2.34 L/h/kg; AUC/dose (Rattus norvegicus [14]): 1109 nM·h
N[C@H]1CCCC[C@H]1Nc1cc2nc[nH]c(=O)c2c(Nc2cccc3c(Cl)c[nH]c23)n1 | 6.66 | 0.034 | 0.815 | 0.32 | 1.81 | 1 | – | 19 | IC50 [16]: 20 µM
Cn1ccc2cccc(Nc3nc(N[C@@H]4CCCC[C@@H]4N)cc4nc[nH]c(=O)c34)c21 | > 10 | 1.6 | > 10 | 9.27 | > 10 | > 10 | – | 9 | –
N[C@H]1CCCC[C@H]1Nc1cc2nc[nH]c(=O)c2c(Nc2cccc3[nH]ccc23)n1 | 4.14 | 0.001 | 0.014 | 0.035 | 0.083 | 0.032 | 0.322 | 17 | –
N[C@H]1COCC[C@H]1Nc1cc2nc[nH]c(=O)c2c(Nc2cccc3cc[nH]c23)n1 | 7.47 | 0.02 | 0.375 | 0.06 | 0.29 | 0.23 | 0.232 | 14 | –
C[C@H](N)CNc1cc2nc[nH]c(=O)c2c(Nc2cccc3cc[nH]c23)n1 | > 10 | 0.021 | 0.445 | 0.209 | 0.98 | 0.084 | 1.01 | 10 | –
O=c1[nH]cnc2cc(N[C@@H]3CCCNC3)nc(Nc3cccc4cc[nH]c34)c12 | – | 0.165 | 3 | 0.378 | 0.95 | 0.315 | 1.99 | – | –
Cc1c[nH]c2c(Nc3nc(N[C@@H]4CCOC[C@@H]4N)cc4nc[nH]c(=O)c34)cccc12 | 5.98 | 0.001 | 0.047 | 0.037 | 0.184 | 0.069 | 0.299 | 20 | Vd [4]: 12 L/kg; Cmax/dose (Rattus norvegicus [6]): 2 nM; IC50 [16]: > 30 µM; bioavailability [9]: 2%; AUC/dose (Rattus norvegicus [11]): 9 nM·h; half-life [12]: 198 min; clearance [13]: 6.72 L/h/kg; AUC/dose (Rattus norvegicus [14]): 401 nM·h
Cc1nc2cc(N[C@@H]3CCCC[C@@H]3N)nc(Nc3cccc4c(C)c[nH]c34)c2c(=O)[nH]1 | – | 0.48 | > 10 | – | > 10 | > 10 | – | 59 | t1/2 (Liver): > 120 min; t1/2 [15]: > 120 min
Cn1cc2c(Nc3nc(N[C@@H]4CCOC[C@@H]4N)cc4cc[nH]c(=O)c34)cccc2n1 | 1.44 | 0.001 | 0.018 | 0.078 | – | 0.19 | 0.376 | 22 | IC50 [16]: > 30 µM; t1/2 (Liver): > 120 min; t1/2 [15]: > 120 min
N[C@H]1CCCC[C@H]1Nc1cc2cc[nH]c(=O)c2c(Nc2cccc3c(Cl)c[nH]c23)n1 | – | 0.004 | 0.35 | 0.283 | 1.23 | 1.8 | – | 9 | t1/2 (Liver): > 120 min; t1/2 [15]: > 120 min
N[C@H]1COCC[C@H]1Nc1cc2cc[nH]c(=O)c2c(Nc2cccc3cc[nH]c23)n1 | 3.51 | 0.022 | 0.34 | 0.055 | 0.68 | 1.2 | 0.433 | 50 | IC50 [16]: 24.9 µM; half-life [21]: 126 min; AUC/dose (Rattus norvegicus [22]): 19 nM·h; clearance [23]: 8.52 L/h/kg; bioavailability [24]: 7%; Cmax/dose (Rattus norvegicus [25]): 2 nM; IC50 [26]: 0.02 µM; Vd [27]: 18 L/kg; AUC/dose (Rattus norvegicus [28]): 299 nM·h
Cc1c[nH]c2c(Nc3nc(N[C@@H]4CCCC[C@@H]4N)cc4cc[nH]c(=O)c34)cccc12 | 4.94 | 0.003 | 0.081 | 0.095 | 0.3 | 0.55 | 0.43 | 27 | –
N[C@H]1CCCC[C@H]1Nc1cc2[nH]c(=O)[nH]c(=O)c2c(Nc2cccc3cc[nH]c23)n1 | – | 1.9 | – | – | – | – | – | – | –
COc1cc(Nc2ncc(F)c(Nc3ccc4c(n3)NC(=O)C(C)(C)O4)n2)cc(OC)c1OC [R-406] | 0.147 | – | – | – | – | – | – | – | –
